In patent US10105313B2, “Uses of rose pigment compounds” (SUNTORY HOLDINGS LIMITED, priority 2014, dated 2018):
In brackets after ≈: the same amount, converted by molar mass. Entries after “also recorded” stand apart in the source; their conditions may differ.

How the values were obtained:
Type in all cases: biochemical
hyaluronidase = hyaluronidase (Bos taurus, UniProt Q2YDK3); experiment: Hyaluronidase inhibition test; settings: for inhibition at 20 µg/mL: test concentration 20 μg/ml; for inhibition at 20 µg/mL / inhibition at 40 µg/mL / inhibition at 80 µg/mL: read-out: Percent hyaluronidase inhibition (%); for inhibition at 40 µg/mL: test concentration 40 μg/ml; for hyaluronidase inhibitory activity (in words): statement in the text
Description: Tests for hyaluronidase inhibition of the extract prepared in Example 2 (hereinafter referred to as the “blue rose petal extract”), the HP-20 column fractions of the blue rose petal extract (60% acetonitrile fractions) and rosadelphin A1 were carried out in accordance with a modified version of the method described by Yumie Maeda et al. in Shokukin Eiseigaku Zasshi (Journal of the Food Hygiene Society of Japan) 31(3), 233-237 (1990). Hyaluronic acid is decomposed by hyaluronidase to give N-acetylhexosamine. To measure the hyaluronidase inhibitory activity, the reducing terminal N-acetylglucosamine was quantified in terms of absorbance due to color development as labeled by p-dimethylaminobenzaldehyde (product of Wako Pure Chemical Industries, Ltd. which is hereinafter abbreviated as p-DAB).
A sample solution (40 μL) in 10% DMSO was mixed with 20 μL of 1000 U/mL hyaluronidase (product of Sigma) dissolved in 0.1 M acetate buffer (pH 4.0) and the mixture was preheated at 37° C. for 20 minutes. To the heated mixture, 40 μL of 0.5 mg/mL Compound 48/80 (product of Sigma) dissolved in the same buffer was added and the resulting mixture was allowed to settle at 37° C. for 20 minutes undisturbed until the hyaluronidase was activated. To the solution, 100 μL of a solution of 0.8 mg/mL potassium hyaluronate was added to give a final concentration of 0.4 mg/mL and reaction was effected at 37° C. for 40 minutes; thereafter, 40 μL of 0.4 N sodium hydroxide in solution was added and the mixture was cooled with ice to quench the reaction. To the reaction mixture, 40 μL of 0.8 M boric acid in solution adjusted to pH 9.1 with 6 N NaOH was added and the resulting mixture was boiled at 100° C. for 3 minutes. The mixture was then cooled to room temperature in ice bath; to the cooled mixture, 1.2 mL of 10 mg/mL p-dimethylaminobenzaldehyde (p-DAB) in solution was added while it was shielded from light and after reaction was effected at 37° C. for 20 minutes, the absorbance at 585 nm (A585) was measured. The hyaluronidase inhibitory activity of the sample was expressed in terms of percent inhibition calculated from the following formula: Percent inhibition (%)={1−(a−b)/(c−d)}×100
a: A585 of the sample solution to which the enzyme was added
b: A585 of the sample solution to which no enzyme was added
c: A585 of the control solution to which the enzyme was added
d: A585 of the control solution to which no enzyme was added.
A positive control was prepared by adding not the sample solution, but 800 μg/ml (1.56 mM as molar concentration) of sodium chromoglycate (product of Sigma which is hereinafter abbreviated as DSCG) in an amount of 40 μL to give a test concentration of 160 μg/ml.

collagenase Type IV = experiment: Collagenase inhibition test; settings: for collagenase inhibitory activity (in words): statement in the text
Description: The blue rose petal extract, fractions thereof as products of treatment on a column (60% acetonitrile fractions), rosadelphin A1, rosacyanin A1, and tellimagrandin 1 were subjected to a collagenase inhibition test in accordance with a modified version of the method described in a document (Wunsch et al., Hoppe Seylers Z Physiol Chem., 333, 149-51 (1963)). For details, see below.
An enzyme solution was prepared by dissolving […] of collagenase Type IV (product of Sigma) in 1 mL of dissolved water to give a concentration of 100 μg/mL (55.1 units/mL) and diluted 50 folds just before use. A substrate solution was prepared by dissolving PZ-peptide (4-phenylazo-benzyloxycarbonyl-Pro-Leu-Gly-Pro-D-Arg-OH) (Pz-Pro-Leu-Gly-Pro-D-Arg-OH; product of Sigma) in a […] calcium chloride containing tris-HCl buffer (pH 7.1) to give a concentration of 0.5 μg/mL. To 20 μL of a solution of sample dissolved in 10% DMSO, 20 μL of the enzyme solution and 160 μL of the substrate solution were added and the mixture was subjected to reaction at 37° C. for 30 minutes. Subsequently, 400 μL of a 25 mM citric acid solution was added to quench the reaction and Pz-Pro-Leu in the reaction mixture was extracted with 2 mL of ethyl acetate. The resulting ethyl acetate layer was measured for absorbance at a wavelength of 320 nm, with ethyl acetate being used as a control. The inhibitory activity of each sample was calculated in terms of the percent inhibition determined by the following formula: Percent collagenase inhibition (%)={1−(a−b)/(c−d)}×100 […]
a: Absorbance after […] reaction in the presence of added sample b: Absorbance after […] reaction in the presence of added sample c: Absorbance after 30 min reaction in the absence of added sample d: Absorbance after 0 min reaction in the absence of added sample.

elastase = target: T1, elastase (Sus scrofa, UniProt P00772); experiment: Elastase inhibition test; settings: for elastase inhibiting activity (in words): statement in the text
T1 construct: purchased Sigma
Description: The blue rose petal extract, fractions thereof as products of treatment on a column (60% acetonitrile fractions), rosadelphin A1, rosacyanin A1, and tellimagrandin 1 were subjected to an elastase inhibition test that was performed by the following method.
An enzyme solution was prepared by dissolving 0.1 ml of elastase (product of Sigma) in 0.2 M Tris buffer at pH 8.0 (hereinafter referred to as a Tris buffer) to give a concentration of 0.05 units/mL and diluted 100 folds just before use. A substrate solution was prepared by dissolving N-Succinyl-Ala-Ala-Ala-p-nitroanilide (product of Sigma) in a Tris buffer to give a concentration of 4 mM. To a 96-well plate, 50 μL of a solution of each sample dissolved in 10% DMSO and 50 μL of the enzyme solution were added and after mixing them with a plate shaker, the resulting mixture was preheated at 25° C. for 10 minutes. Subsequently, 100 μL of the substrate solution was added and after mixing with a plate shaker, reaction was carried out at 25° C. for 30 minutes and immediately thereafter, the liberation of p-nitroaniline was assayed by measuring the absorbance at a wavelength of 405 nm (hereinafter designated as A405). A405 measurement was also performed for a blank of sample solution that was prepared by adding a Tris buffer in place of the substrate solution, as well as for a control solution that was prepared by adding 10% DMSO in place of the sample solution. The inhibitory activity of each sample was calculated in terms of the percent inhibition determined by the following formula: Percent elastase inhibition (%)=[(f−e)−{(b−a)−(d−c)}]/(f−e)×100 […]
a: A405(0 min) of the sample solution for enzymatic reaction b: A405(30 min) of the sample solution for enzymatic reaction c: A405(0 min) of the blank of sample solution d: A405(30 min) of the blank of sample solution e: A405(0 min) of the control solution f: A405(30 min) of the control solution.

[1] = Table 6, test concentration 40 μg/ml
[2] = Table 3, test concentration 80 μg/ml
[3] = Table 8, test concentration 40 μg/mL
[4] = Table 8, test concentration 80 μg/mL
[5] = Table 8, test concentration 160 μg/mL

T1 sequence (P00772 27-266): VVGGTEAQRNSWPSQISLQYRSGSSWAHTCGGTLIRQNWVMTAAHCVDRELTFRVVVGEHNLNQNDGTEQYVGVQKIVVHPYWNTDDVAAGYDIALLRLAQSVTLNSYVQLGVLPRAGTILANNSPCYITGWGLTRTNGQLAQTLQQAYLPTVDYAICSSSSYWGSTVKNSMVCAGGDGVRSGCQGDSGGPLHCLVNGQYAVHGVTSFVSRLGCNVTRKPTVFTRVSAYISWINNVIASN
Chain of hyaluronidase (Q2YDK3 entry or part of it): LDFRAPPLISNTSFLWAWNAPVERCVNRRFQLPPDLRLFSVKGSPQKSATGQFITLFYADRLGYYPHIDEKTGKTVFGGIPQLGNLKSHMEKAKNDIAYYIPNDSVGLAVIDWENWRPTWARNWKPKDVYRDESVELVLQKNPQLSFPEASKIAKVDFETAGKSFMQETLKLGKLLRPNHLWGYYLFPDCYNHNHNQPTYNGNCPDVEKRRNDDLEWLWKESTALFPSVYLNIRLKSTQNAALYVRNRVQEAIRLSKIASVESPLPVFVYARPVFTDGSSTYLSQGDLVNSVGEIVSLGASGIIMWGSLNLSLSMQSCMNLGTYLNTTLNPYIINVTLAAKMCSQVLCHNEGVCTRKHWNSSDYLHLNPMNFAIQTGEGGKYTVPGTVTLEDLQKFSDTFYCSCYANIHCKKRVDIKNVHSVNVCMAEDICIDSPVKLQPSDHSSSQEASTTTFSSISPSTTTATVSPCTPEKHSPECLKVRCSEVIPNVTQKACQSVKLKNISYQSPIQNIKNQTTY

Structure (SMILES) | Percent collagenase inhibition (%) (collagenase Type IV; [1]) | inhibition at 20 µg/mL (hyaluronidase; Table 3) | inhibition at 40 µg/mL (hyaluronidase; Table 3) | inhibition at 80 µg/mL (hyaluronidase; [2]) | hyaluronidase inhibitory activity (in words) (hyaluronidase) | elastase inhibiting activity (in words) (elastase) | collagenase inhibitory activity (in words) (collagenase Type IV) | Percent elastase inhibition (%) (elastase; [3]) | Percent elastase inhibition (%) (elastase; [4]) | Percent elastase inhibition (%) (elastase; [5]) | other results
O=C([O-])c1cc(=O)c2c(OCC(O)COc3cccc4oc(C(=O)[O-])cc(=O)c34)cccc2o1.[Na+].[Na+] [DSCG, sodium chromoglycate, reference compound] |  |  |  |  |  |  |  |  |  |  | Percent hyaluronidase inhibition (%) (hyaluronidase; Table 3, positive control at 160 μg/ml): * Percent inhibition by 160 μg/ml DSCG: 22.3%
CC(C)CCP(=O)([O-])NCC(=O)N1CCCC1C(=O)NC(C)C(=O)[O-].[K+].[K+] [IP304, isoamylphosphonyl-Glycyl-L-Prolyl-L-Alanine, dipotassium salt, reference compound] | *Percent inhibition by 40 μg/ml IP304: 69.7% |  |  |  |  |  |  |  |  |  | Percent collagenase inhibition (%) (collagenase Type IV; Table 5, test concentration 80 μg/mL): * Percent inhibition by 80 μg/mL IP304: 84.1%
O=C(OC1C(O)OC2COC(=O)c3cc(Oc4c(-c5ccc(O)c(O)c5)[o+]c5cc(O)cc6c5c4-c4c(C(=O)O)cc(O)c(O)c4O6)c(O)c(O)c3-c3c(cc(O)c(O)c3O)C(=O)OC2C1OC(=O)c1cc(O)c(O)c(O)c1)c1cc(O)c(O)c(O)c1 (centres unmarked) [Rosacyanin A1, rosacyanin A1] | 52.0% | 24.7% | 49.1% | 93.2% | comparable activity to rosadelphin A1 | strong activity | greater activity than the blue rose petal extract |  |  |  | hyaluronidase inhibitory activity (in words) (hyaluronidase; listed as rosacyanin A1): strong hyaluronidase inhibitory activity
O=C(OC1C(O)OC2COC(=O)c3cc(Oc4c(-c5cc(O)c(O)c(O)c5)[o+]c5cc(O)cc6c5c4-c4c(C(=O)O)cc(O)c(O)c4O6)c(O)c(O)c3-c3c(cc(O)c(O)c3O)C(=O)OC2C1OC(=O)c1cc(O)c(O)c(O)c1)c1cc(O)c(O)c(O)c1 (centres unmarked) [Rosadelphin A1, rosadelphin A1] | 42.3% | 24.4% | 48.2% | 95.3% |  | comparable or more than comparable activity to rosacyanin A1 | greater activity than the blue rose petal extract | 31.8% | 40.4% | 49.4% | hyaluronidase inhibitory activity (in words) (hyaluronidase; listed as rosadelphin A1): strong activity in a concentration dependent manner; also recorded: strong hyaluronidase inhibitory activity; inhibition at 40 µg/mL (elastase; Table 8, test concentration 40 μg/mL, read-out: Percent elastase inhibition (%)): 50.7%; inhibition at 80 µg/mL (elastase; Table 8, test concentration 80 μg/mL, read-out: Percent elastase inhibition (%)): 58.1%; inhibition at 160 µg/mL (elastase; Table 8, test concentration 160 μg/mL, read-out: Percent elastase inhibition (%)): 62%; elastase inhibiting activity (in words) (elastase; listed as rosadelphin A1): strong activity in a concentration dependent manner
O=C(O[C@H]1[C@@H]2OC(=O)c3cc(O)c(O)c(O)c3-c3c(cc(O)c(O)c3O)C(=O)OC[C@H]2OC(O)[C@@H]1OC(=O)c1cc(O)c(O)c(O)c1)c1cc(O)c(O)c(O)c1 (some centres unmarked) [Tellimagrandin 1, tellimagrandin 1, reference compound] | 42.7% |  |  |  | also active, though not so active as rosadelphin A1 | weak activity | greater activity than the blue rose petal extract | 5.9% | 4.6% | 6.5% | IC50 (hyaluronidase inhibition) (hyaluronidase; Table 3): 196.5 µg/mL (≈ 250 µM); Percent hyaluronidase inhibition (%) (hyaluronidase; [2]): 64.8%; elastase inhibiting activity (in words) (elastase; listed as tellimagrandin 1): little activity
